For series [1], the target named is T1, hUCK (Homo sapiens, UniProt P30085). The settings on record: hUCK versus PfUCK.
Series [2] addresses T2, PfUCK (Plasmodium falciparum, UniProt Q8I231).
T2 sequence (Q8I231 24-371): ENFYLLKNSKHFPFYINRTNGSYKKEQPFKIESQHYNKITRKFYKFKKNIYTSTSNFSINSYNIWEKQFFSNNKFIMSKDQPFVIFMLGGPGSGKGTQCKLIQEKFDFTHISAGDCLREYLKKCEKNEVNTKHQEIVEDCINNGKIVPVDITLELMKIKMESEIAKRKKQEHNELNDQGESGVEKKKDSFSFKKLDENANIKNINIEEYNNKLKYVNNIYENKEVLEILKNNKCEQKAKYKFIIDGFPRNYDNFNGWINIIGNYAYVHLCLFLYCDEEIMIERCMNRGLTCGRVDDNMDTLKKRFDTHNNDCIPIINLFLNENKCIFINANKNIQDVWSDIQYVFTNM
Nature of the series: UCK characterization: Km for nucleoside monophosphate substrates, PfUCK. It counts as biochemical. To be noted: UMP versus CMP.

The target in series [3] is T1, hUCK. To be noted: read-out: Km hUCK; phosphate acceptor; literature values ref 66; cited from earlier work.
Series [4] concerns the target recombinant PfUCK (P. falciparum UMP-CMP kinase, PfUCK-Δ23) (Plasmodium falciparum, UniProt Q8I231). Nature of the series: Inhibition constant (Ki) determination, coupled PK/LDH NADH assay, recombinant PfUCK. It counts as biochemical. On the procedure:
(§1) The hydrophobic core at the protein’s N-terminus may cause poor expression and low solubility in E. coli. Therefore, a truncated gene was created where the ORF began at amino acid residues 24–371, encoding a 348 amino acid protein. […] Briefly, protein expression was induced with isopropyl-D-thiogalactoside, incubated at 16°C with shaking at 200 RPM for 20 hours, and the cell pellet resuspended in binding buffer (50 mM Tris [pH 7.6], 300 mM NaCl, 20 mM imidazole, 5% glycerol, and 0.075% β-mercaptoethanol), with cell disruption using an Avestin C3 Cell Disrupter. Cell debris was removed, and the UCK was purified by Ni-NTA affinity purification. The protein was eluted from the column using a linear gradient of imidazole ([…]) in elution buffer (50 mM Tris [pH 7.6], 300 mM NaCl, 5% glycerol, and 0.075% β-mercaptoethanol). […] The concentrated protein was then stored at −70°C in a storage buffer (25 mM Tris-HCl, 50 mM KCl, and 20% glycerol; pH 7.0).
(§2) The final concentration of dimethyl sulfoxide (Merck, Catalog number 472301) in the assay reaction was maintained at 1%.

The subject of series [5] is recombinant PfUCK (P. falciparum UMP-CMP kinase, PfUCK-Δ23). The series is described as above. In kind it is biochemical, Plasmodium falciparum. To be noted: hUCK versus PfUCK. How it is done: as §1, §2
In series [6] the test system is P. falciparum 3D7. As to the kind of experiment: Antiplasmodial activity (IC50), SYBR Green fluorescence, 48 hours. In kind it is cell-based, Plasmodium falciparum. On the procedure:
P. falciparum 3D7 parasites underwent two synchronization cycles with D-sorbitol initiating the inhibitor testing. Parasitemia and hematocrit were adjusted to 0.5% and 3%, respectively. Synchronized ring parasites were cultured in 96-well plates in complete RPMI medium with varying inhibitor concentrations. Inhibitor stock solutions, mostly at 100 mM, were prepared in DMSO. […] Triplicate wells were prepared for each compound. Negative controls included wells with uninfected red cells (3% hematocrit) in complete RPMI medium.
Culture plates were incubated in a chamber with controlled gas conditions at 37°C. After 48 hours, parasites were quantified using a fluorescence-based assay with SYBR Green dye as previously described ([51]). Lysis buffer containing SYBR Green was added to each well, and plates were incubated at room temperature for 45 minutes and protected from the light. Fluorescence was measured using a microplate reader (POLARstar OPTIMA, BMG Labtech) with excitation at 485 nm and detection at 520 nm. Background fluorescence of uninfected red cells was subtracted, and dose-response curves were plotted against inhibitor concentration. IC50 values were determined using nonlinear regression curve fitting in GraphPad Prism software.

For series [7], the target named is T3, recombinant human UMP-CMP kinase (hUCK) (Homo sapiens, UniProt P30085).
T3 construct: constructed by amplifying its ORF from an available commercial plasmid; His tag (vector-encoded by pET28a; the text names only the HisPur Ni-NTA and His GraviTrap TALON columns) (N); host or cells: E. coli BL21 (DE3) with extra argU, ileY and leuW tRNA genes
T3 sequence (P30085 1-228 isoform P30085-3): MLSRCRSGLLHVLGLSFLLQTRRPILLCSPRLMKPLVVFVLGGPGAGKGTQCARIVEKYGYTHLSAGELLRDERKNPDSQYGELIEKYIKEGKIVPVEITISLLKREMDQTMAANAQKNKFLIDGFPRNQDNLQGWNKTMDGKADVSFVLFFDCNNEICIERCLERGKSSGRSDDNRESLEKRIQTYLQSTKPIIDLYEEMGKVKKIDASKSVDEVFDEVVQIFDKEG
As to the kind of experiment: Inhibition constant (Ki) determination, coupled PK/LDH NADH assay, hUCK. In kind it is biochemical. To be noted: for Ki—hUCK: 1 mM CMP, competitive equation. How it is done: The protein was purified with a HisPur Ni-NTA Spin column, and elution was performed with 250 mM imidazole in elution buffer (50 mM Tris-HCl, 750 mM NaCl, and 10% glycerol; pH 7.5). The protein was further purified using a His GraviTrap TALON column (Cytiva, catalog number 29-0005-94). The buffers employed were binding buffer (50 mM potassium phosphate [KP], 100 mM NaCl, and 10% glycerol; pH 8.0), washing buffer (50 mM KP, 500 mM NaCl, 10 mM imidazole, and 10% glycerol; pH 8.0), and elution buffer (50 mM Tris-HCl, 750 mM NaCl, 250 mM imidazole, and 10% glycerol; pH 7.5). The purified protein was desalted using a PD-10 column (Sephadex G25 M; Cytiva, catalog number 17085101) stored in a storage buffer (25 mM Tris-HCl, 50 mM KCl, and 20% glycerol; pH 7.0). Purity of the recombinant protein was verified via SDS-PAGE (Mini-Protein TGX Precast Gels; Bio-Rad), and its concentration was determined using a Bradford protein assay (Bio-Rad, catalog number 5000006).
as §2

Substrate in series [8]: Nc1ccn([C@H]2C[C@H](O)[C@@H](COP(=O)(O)O)O2)c(=O)n1
Nature of the series: UCK characterization: Km for nucleoside monophosphate substrates, PfUCK. In kind it is biochemical, Plasmodium falciparum. To be noted: other: phosphate acceptor, ATP as phosphate donor, 25°C, pH 7.6.

Substrate in series [9]: O=c1ccn([C@@H]2O[C@H](COP(=O)(O)O)[C@@H](O)[C@H]2O)c(=O)[nH]1
The series is described as above. In kind it is biochemical, Plasmodium falciparum. The settings on record: other: phosphate acceptor, ATP as phosphate donor, 25°C, pH 7.6.

Substrate in series [10]: O=c1ccn([C@@H]2O[C@H](COP(=O)(O)O)[C@@H](O)[C@H]2O)c(=O)[nH]1
Nature of the series: purified protein, by the assay type. The settings on record: other: phosphate acceptor, ATP as phosphate donor, 25°C, pH 7.6.

[11] abbreviates: Supplementary Table 7, benzoylacetonitrile derivatives.
The mark [12] stands for this setting: Table 4, benzoylacetonitrile derivatives.
Where [13] appears, read: Plasmodium falciparum, 3D7, 48 h, Supplementary Table 7, benzoylacetonitrile derivatives.
The mark [14] stands for this setting: Plasmodium falciparum, 3D7, 48 h, Table 5.
[15] abbreviates: Table 3, acrylamide and chloroacetamide compounds.

“Also recorded” adds a separate entry of the source. Some results are limits rather than exact numbers.

In general, Km refers to the concentration of substrate that gives half-maximal velocity. On to `O=c1ccn([C@@H]2O[C@H](COP(=O)(O)O)[C@@H](O)[C@H]2O)c(=O)[nH]1` [UMP], for which the “hUCK Km fold greater than PfUCK” value in [1] amounted to 2.3 fold. Further, in series [2], the “fold higher Km than CMP, PfUCK” value is given as 3.9 fold. The Km in series [3] was 45 ± 10 µM.
As usually defined, the Ki is a dissociation constant, usually derived from enzyme kinetics or from competition with a known ligand. On to `N#CCC(=O)c1ccccc1Cl` [Compound C39], for which, in series [4], the Ki turned out to be 3.64 ± 0.59 µM. The Selectivity index in [5] (Table 4) is reported as above 275. Besides, the “IC50 - P. falciparum (3D7), µM” value in series [6] (setting [11]) is on record as “no inhibition at 1 mM”. For the same molecule, in [7] (setting [12]), the “Ki—hUCK” value was “little or no inhibition of hUCK; also recorded: No inhibition at 1 mM”.
As for `N#CCC(=O)c1ccc(Cl)c(Cl)c1` [Compound C12], the Ki in [4] was found to be 11.3 ± 2.22 µM. Further, the Selectivity index in [5] (Table 4) is above 89. For the same molecule, the “IC50 - P. falciparum (3D7), µM” value in [6] (setting [11]) was “no inhibition at 0.5 mM”. For the same molecule, in series [7] (setting [12]), the “Ki—hUCK” value was “No inhibition at 1 mM”.
Consider CMP, for which the Km in [3] is 20 ± 5 µM.
One may read the IC50 as the concentration at which inhibition is half-maximal. For `N#CCC(=O)c1cccc(F)c1` [Compound C38], the Ki in [4] turned out to be 1.66 ± 0.27 µM. Moreover, the IC50 in series [6] (setting [13]) is above 310 µM; in series [6] (setting [11]) it was 339 ± 26.4 µM. Besides, the “Ki—hUCK” value in series [7] (setting [12]) was “little or no inhibition of hUCK; also recorded: No inhibition at 0.5 mM”.
For the molecule `C=CC(=O)NCc1cc(=O)n2ccccc2n1` [Compound C43], the Ki was 4.15 ± 0.26 µM in series [4] and 4.55 ± 0.52 µM in [7]. In addition, in series [5] (Table 3), the Selectivity index is recorded as 1.09. Further, the IC50 in series [6] (setting [14]) is above 1000 µM. Moreover, in series [7] (setting [15]), the “Ki—hUCK” value was “inhibited hUCK activity”.
For the molecule `N#CCC(=O)c1cccc(Cl)c1` [Compound C7], the Ki in [4] was 4.26 ± 0.55 µM. The Selectivity index in series [5] (Table 4) is above 235. The values for the IC50 in series [6] (setting [13]) and in [6] (setting [11]) were above 310 µM and 380 ± 50.1 µM, respectively. Also, the “Ki—hUCK” value in series [7] (setting [12]) was “little or no inhibition of hUCK; also recorded: No inhibition at 1 mM”.
In the case of `Nc1ccn([C@H]2C[C@H](O)[C@@H](COP(=O)(O)O)O2)c(=O)n1` [dCMP], in series [3], the Km is 900 ± 100 µM.
For `O=C(CCl)NCc1cc(=O)n2ccccc2n1` [Compound C21], the values for the inhibition constant (Ki) in series [4] and in series [7] were 13.7 ± 3.18 µM and 2.98 ± 0.5 µM, respectively. In series [5] (Table 3), the Selectivity index is reported as 0.22. Also, the IC50 in series [6] (setting [14]) was determined as 15.6 ± 1.13 µM. The “Ki—hUCK” value in series [7] (setting [15]) was “inhibited hUCK activity”.

B1: PfUCK (Plasmodium falciparum 3D7) (protein)
chain: ENFYLLKNSKHFPFYINRTNGSYKKEQPFKIESQHYNKITRKFYKFKKNIYTSTSNFSINSYNIWEKQFFSNNKFIMSKDQPFVIFMLGGPGSGKGTQCKLIQEKFDFTHISAGDCLREYLKKCEKNEVNTKHQEIVEDCINNGKIVPVDITLELMKIKMESEIAKRKKQEHNELNDQGESGVEKKKDSFSFKKLDENANIKNINIEEYNNKLKYVNNIYENKEVLEILKNNKCEQKAKYKFIIDGFPRNYDNFNGWINIIGNYAYVHLCLFLYCDEEIMIERCMNRGLTCGRVDDNMDTLKKRFDTHNNDCIPIINLFLNENKCIFINANKNIQDVWSDIQYVFTNM
With B1, the Km is recorded as 428 ± 11 µM in [8] and 110 ± 14 µM in series [9].

B2: hUCK (Homo sapiens) (protein)
chain: MLSRCRSGLLHVLGLSFLLQTRRPILLCSPRLMKPLVVFVLGGPGAGKGTQCARIVEKYGYTHLSAGELLRDERKNPDSQYGELIEKYIKEGKIVPVEITISLLKREMDQTMAANAQKNKFLIDGFPRNQDNLQGWNKTMDGKADVSFVLFFDCNNEICIERCLERGKSSGRSDDNRESLEKRIQTYLQSTKPIIDLYEEMGKVKKIDASKSVDEVFDEVVQIFDKEG
In the case of B2, in [10], the Km is recorded as 47.7 ± 3.2 µM.

The values above are taken from article PMC12588083, “Validated antimalarial drug target discovery using genome-scale metabolic modeling” (Antimicrobial Agents and Chemotherapy, 2025).
